In brackets after ≈: the same amount, converted by molar mass. Marks after values point to notes of the source that are not given here. Square brackets hold non-standard residues; d marks the D form. Ends that are not written are not given here. Peptide text beside a SMILES is read from it.
Tests used:
Assay type in all cases: cell-based
[1] = system: clinical Salmonella isolates; test: MIC, broth microdilution; conditions: for MIC: MHB, 5 × 10^5 CFU/mL, 37 °C, 18 h, duplicate
Experimental: (§1) All 12 isolates of Salmonella used in this study were clinical isolates and anonymous left-overs from laboratory diagnoses. They were maintained in a 20% glycerol (Sigma-Aldrich) stock at −80 °C and further cultured on Mueller-Hinton agar (MHA, Oxoid, Hampshire, UK) at 37 °C for 18 h to obtain single colonies for antimicrobial assays. This study was approved by the Ethics Committee of the Faculty of Tropical Medicine (Mahidol University, Bangkok, Thailand; MUTM-EXMPT 2017-007).
MIC was determined using the broth microdilution method described by Hancock with some modifications. Briefly, bacterial colonies grown from the MHA were prepared in MHB (Oxoid) as a 0.5 McFarland suspension (which is equal to 1 × 10^8 CFU/mL), and was further 200-fold diluted by the MHB (5 × 10^5 CFU/mL). The bacterial suspension (50 µL) was mixed with 2-fold serial dilutions of peptide (5.5 µL) achieving final concentrations of 256 to 1 µM using a round-bottom polypropylene (PP) 96-well plate (Greiner Bio-One). The plate was incubated at 37 °C for 18 h including incubating peptide free-bacteria as positive growth control, and MHB as negative growth control. After the incubation, the lowest concentration with no visible growth was defined as a MIC value. The assay was performed in a duplicate manner.

[2] = system: sheep red blood cells; test: Hemolytic activity assay; conditions: for HC50 (hemolytic concentration 50): concentration inducing 50% hemolysis of sRBCs, nonlinear regression, unit (µM); for percent hemolysis: 2% sRBCs in PBS, 37 °C, 1 h, OD540, triplicate mean; for concentration required for the initiation of hemolysis: sRBCs, 60 min, 256–1 µM tested
Experimental: The peptide toxicity to the mammalian system was screened based on the hemolytic test by measuring the hemoglobin released from ruptured red blood cells (RBCs). In this study, sheep RBCs (sRBCs) were employed. They were thrice washed and prepared as a suspension in phosphate-buffered saline (PBS, Oxoid). A suspension of 2% sRBCs was incubated with 2-fold serial dilutions of peptide (final concentrations; 256 to 1 µM in a total volume of 200 µL) at 37 °C for 1 h. The solutions of 0.1% (final concentration) Triton X-100 (Sigma-Aldrich) and PBS containing the peptide solvent were used instead of the peptides as the controls of hemolysis at 100% and 0%, respectively. Thereafter, the post-incubated suspensions were centrifuged (1000× g, 3 min) to pelletize residual sRBCs. The supernatants were then transferred into a flat-bottom PS 96-well plate and were measured the absorbance at 540 nm (OD540) by a microplate reader. The test was conducted in triplicate and the mean OD540 was used to calculate the hemolysis (%) as; ((OD540 (peptide) − OD540 (PBS + peptide solvent))/(OD540 (0.1% Triton X-100) − OD540 (PBS + peptide solvent))) × 100. The hemolytic concentration 50 (HC50), a concentration inducing 50% hemolysis, was determined.
The GraphPad Prism version 7.00 (GraphPad Software, La Jolla, CA, USA) was applied for all statistical analyses and data visualizations. Replicate quantitative results were calculated and shown as mean ± SD, unless otherwise specified. The HC50 values were determined using nonlinear regression analysis. The paired t-test and repeated measures one-way ANOVA with Tukey’s multiple comparison test were applied to compare between 2 groups and among 3 or more groups, respectively. The comparisons were considered as a statistically significant difference when a p-value < 0.05.

[3] = system: clinical Salmonella isolates; test: MBC, drop plate method, and MBC/MIC mode of action; conditions: for GM of MBC: geometric mean over 12 clinical Salmonella isolates; for MBC: drop plate on MHA from MIC plate, 37 °C, 18 h, thrice
Experimental: as §1
The plate derived from the MIC assay was immediately tested for the MBC using a drop plate method. A volume of 10 µL of the culture from individual wells at MIC, 2MIC, and 4MIC was dropped on MHA plates. […] The experiment was thrice performed.
In order to determine whether the peptides have bacteriostatic or bactericidal activity, a ratio of MBC to MIC (MBC/MIC) was applied. The ratio >4 was indicative of bacteriostatic peptide, and ≤4 was inferred as bactericidal peptide.

[4] = isolate 5 (Enteritidis, blood; resistant AMP, SXT, KZ)
[5] = isolate 7 (Typhimurium, blood; resistant AMP, CN, TE, NA, SXT)
[6] = isolate 11 (I 1,4:i:-, blood; resistant AMP, TE, NA, SXT, C)
[7] = isolate 18 (Stanley, urine; resistant TE, SXT, C)
[8] = isolate 26 (Typhimurium, urine; resistant TZP, TE, NA)
[9] = isolate 27 (Typhimurium, stool; resistant AMP, TE, NA, SXT, CIP)
[10] = isolate 55 (Typhimurium, blood; resistant AMP, SXT, C, TE)
[11] = isolate 61 (Enteritidis, blood; resistant AMP, TE, NA, SXT)
[12] = isolate 69 (Typhimurium, stool; resistant AMP)
[13] = isolate 76 (Enteritidis, CSF; resistant NA)
[14] = isolate 78 (Enteritidis, blood; resistant TE, CIP, NA, SXT)
[15] = isolate 107 (Typhimurium, stool; susceptible)

Molecule: CC[C@@H](C)[C@@H](NC(=O)[C@H](N)Cc1ccccc1)C(=O)N[C@H](CCCNC(=N)N)C(=O)N[C@H](CCCNC(=N)N)C(=O)N[C@@H](C(=O)N[C@H](C)C(=O)N[C@H](CCCNC(=N)N)C(=O)N[C@H](CC(C)C)C(=O)N[C@H](CC(C)C)C(=O)N[C@H](CCCNC(=N)N)C(=O)N[C@H](CCCNC(=N)N)C(=O)N[C@@H](C(=O)N[C@H](Cc1ccccc1)C(N)=O)[C@H](C)CC)[C@H](C)CC [dKn2-5R-NH2] (H-[dF][dI][dR][dR][dI][dA][dR][dL][dL][dR][dR][dI][dF]-NH2)
- MIC [1, 4]: 8 µM (≈ 13.8 µg/mL)
- MIC [1, 5]: 8 µM (≈ 13.8 µg/mL)
- MIC [1, 6]: 8 µM (≈ 13.8 µg/mL)
- MIC [1, 7]: 8 µM (≈ 13.8 µg/mL)
- MIC [1, 8]: 8 µM (≈ 13.8 µg/mL)
- MIC [1, 9]: 4 µM (≈ 6.92 µg/mL)
- MIC [1, 10]: 4 µM (≈ 6.92 µg/mL)
- MIC [1, 11]: 4 µM (≈ 6.92 µg/mL)
- MIC [1, 12]: 4 µM (≈ 6.92 µg/mL)
- MIC [1, 13]: 8 µM (≈ 13.8 µg/mL)
- MIC [1, 14]: 8 µM (≈ 13.8 µg/mL)
- MIC [1, 15]: 4 µM (≈ 6.92 µg/mL)
- HC50 (hemolytic concentration 50) [2]: 199.20 µM
- percent hemolysis ([2]; peptide 1 µM): 0%
- percent hemolysis ([2]; peptide 2 µM): 0%
- percent hemolysis ([2]; peptide 4 µM): 0.4 * %
- percent hemolysis ([2]; peptide 8 µM): 0.5 * %
- percent hemolysis ([2]; peptide 16 µM): 0.9%
- percent hemolysis ([2]; peptide 32 µM): 2.5%
- percent hemolysis ([2]; peptide 64 µM): 8.7%
- percent hemolysis ([2]; peptide 128 µM): 23.6%
- percent hemolysis ([2]; peptide 256 µM): 65.6%
- concentration required for the initiation of hemolysis [2]: 4000 nM
- GM of MBC [3]: 5.99 µM
- MBC ([3]; isolate 5 (Enteritidis)): 8 µM (≈ 13.8 µg/mL)
- MBC ([3]; isolate 7 (Typhimurium)): 8 µM (≈ 13.8 µg/mL)
- MBC ([3]; isolate 11 (I 1,4:i:-)): 8 µM (≈ 13.8 µg/mL)
- MBC ([3]; isolate 18 (Stanley)): 8 µM (≈ 13.8 µg/mL)
- MBC ([3]; isolate 26 (Typhimurium)): 8 µM (≈ 13.8 µg/mL)
- MBC ([3]; isolate 27 (Typhimurium)): 4 µM (≈ 6.92 µg/mL)
- MBC ([3]; isolate 55 (Typhimurium)): 4 µM (≈ 6.92 µg/mL)
- MBC ([3]; isolate 61 (Enteritidis)): 4 µM (≈ 6.92 µg/mL)
- MBC ([3]; isolate 69 (Typhimurium)): 4 µM (≈ 6.92 µg/mL)
- MBC ([3]; isolate 76 (Enteritidis)): 8 µM (≈ 13.8 µg/mL)
- MBC ([3]; isolate 78 (Enteritidis)): 8 µM (≈ 13.8 µg/mL)
- MBC ([3]; isolate 107 (Typhimurium)): 4 µM (≈ 6.92 µg/mL)

Molecule: FFFIRRIARLLRRIF-NH2 [2F-Kn2-5R-NH2]
- MIC [1, 4]: 4 µM
- MIC [1, 5]: 4 µM
- MIC [1, 6]: 4 µM
- MIC [1, 7]: 8 µM
- MIC [1, 8]: 8 µM
- MIC [1, 9]: 8 µM
- MIC [1, 10]: 8 µM
- MIC [1, 11]: 4 µM
- MIC [1, 12]: 4 µM
- MIC [1, 13]: 8 µM
- MIC [1, 14]: 8 µM
- MIC [1, 15]: 4 µM
- HC50 (hemolytic concentration 50) [2]: 5.60 µM
- percent hemolysis ([2]; peptide 1 µM): 6.1%
- percent hemolysis ([2]; peptide 2 µM): 15%
- percent hemolysis ([2]; peptide 4 µM): 33.7 * %
- percent hemolysis ([2]; peptide 8 µM): 61.6 * %
- percent hemolysis ([2]; peptide 16 µM): 96.2%
- percent hemolysis ([2]; peptide 32 µM): 97.6%
- percent hemolysis ([2]; peptide 64 µM): 97.9%
- percent hemolysis ([2]; peptide 128 µM): 99.8%
- percent hemolysis ([2]; peptide 256 µM): 100%
- concentration required for the initiation of hemolysis [2]: 1000 nM
- GM of MBC [3]: 5.66 µM
- MBC ([3]; isolate 5 (Enteritidis)): 4 µM
- MBC ([3]; isolate 7 (Typhimurium)): 4 µM
- MBC ([3]; isolate 11 (I 1,4:i:-)): 4 µM
- MBC ([3]; isolate 18 (Stanley)): 8 µM
- MBC ([3]; isolate 26 (Typhimurium)): 8 µM
- MBC ([3]; isolate 27 (Typhimurium)): 8 µM
- MBC ([3]; isolate 55 (Typhimurium)): 8 µM
- MBC ([3]; isolate 61 (Enteritidis)): 4 µM
- MBC ([3]; isolate 69 (Typhimurium)): 4 µM
- MBC ([3]; isolate 76 (Enteritidis)): 8 µM
- MBC ([3]; isolate 78 (Enteritidis)): 8 µM
- MBC ([3]; isolate 107 (Typhimurium)): 4 µM

Molecule: FIGAIARLLSK [BmKn-22, reference compound]
- MIC [1, 4]: > 256 µM
- MIC [1, 5]: > 256 µM
- MIC [1, 10]: > 256 µM
- MIC [1, 11]: > 256 µM
- MIC [1, 12]: > 256 µM
- MIC [1, 13]: > 256 µM
- MIC [1, 14]: > 256 µM
- MIC [1, 15]: > 256 µM

Molecule: FIGAIARLLSKIF [BmKn-2, reference compound]
- MIC values, range over isolates ([1]; eight clinical Salmonella isolates, peptide 256–1 µM tested): 64 to 256 µM
- MIC [1, 4]: 128 µM
- MIC [1, 5]: 128 µM
- MIC [1, 10]: 256 µM
- MIC [1, 11]: 256 µM
- MIC [1, 12]: 256 µM
- MIC [1, 13]: 64 µM
- MIC [1, 14]: 128 µM
- MIC [1, 15]: 64 µM

Molecule: FPSFLVGR [Pug-4, reference compound]
- MIC [1, 4]: > 256 µM
- MIC [1, 5]: > 256 µM
- MIC [1, 10]: > 256 µM
- MIC [1, 11]: > 256 µM
- MIC [1, 12]: > 256 µM
- MIC [1, 13]: > 256 µM
- MIC [1, 14]: > 256 µM
- MIC [1, 15]: > 256 µM

Molecule: KLKLLLLLKL [KLK1, reference compound]
- MIC [1, 4]: > 256 µM
- MIC [1, 5]: > 256 µM
- MIC [1, 10]: > 256 µM
- MIC [1, 11]: > 256 µM
- MIC [1, 12]: > 256 µM
- MIC [1, 13]: > 256 µM
- MIC [1, 14]: > 256 µM
- MIC [1, 15]: > 256 µM

Molecule: KLKLLLLLKLK-NH2 [KLK, reference compound]
- MIC [1, 4]: > 256 µM
- MIC [1, 5]: > 256 µM
- MIC [1, 10]: > 256 µM
- MIC [1, 11]: > 256 µM
- MIC [1, 12]: > 256 µM
- MIC [1, 13]: > 256 µM
- MIC [1, 14]: > 256 µM
- MIC [1, 15]: > 256 µM

Molecule: LLKLFFPFLETGE [Pug-1, reference compound]
- MIC [1, 4]: > 256 µM
- MIC [1, 5]: > 256 µM
- MIC [1, 10]: > 256 µM
- MIC [1, 11]: > 256 µM
- MIC [1, 12]: > 256 µM
- MIC [1, 13]: > 256 µM
- MIC [1, 14]: > 256 µM
- MIC [1, 15]: > 256 µM

Source: publication PMC8348142, “Antimicrobial Peptide Modifications against Clinically Isolated Antibiotic-Resistant Salmonella” (Molecules, 2021)
